T/C data for nine compounds are collected here from PubChem BioAssay AID328 (DTP/NCI, 2004).

Where “and” joins values, the source holds several entries; their conditions need not be identical. Identical values can stand only once. Inconclusive results and toxic doses are left out.

The test has as its system BDF1 mice, P388 leukemia ip, median survival T/C. The test can be described thus: NCI In Vivo Anticancer Drug Screen. Data for tumor model P388 Leukemia (intraperitoneal) in B6D2F1 (BDF1) mice. Conditions: endpoint: median survival time, higher = longer survival. The essentials:
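In tumour-bearing mice, survival after compound treatment is set against the vehicle group and given as a quotient.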

Setting [1] is: dose: 6.25 mg/kg/injection, schedule: Q01DX009 (ip), vehicle: water.
Where [2] appears, read: dose: 12.5 mg/kg/injection, schedule: Q01DX009 (ip), vehicle: water.
The mark [3] stands for this setting: dose: 50.0 mg/kg/injection, schedule: Q01DX009 (ip), vehicle: water.
The mark [4] stands for this setting: dose: 100.0 mg/kg/injection, schedule: Q01DX009 (ip), vehicle: water.

`c1ccc(-c2c(-c3ccccc3)c(-c3ccccc3)c(-c3ccccc3)c(-c3ccccc3)c2-c2ccccc2)cc1`: the T/C under setting [1] was 93 % of control; the T/C under setting [2] was 115 % of control; the T/C (dose: 12.5 mg/kg/injection, schedule: Q04DX003 (ip), vehicle: water) was 106 % of control; the T/C (dose: 25.0 mg/kg/injection, schedule: Q04DX003 (ip), vehicle: water) is 106 % of control and 108 % of control; the T/C under setting [3] is 90 % of control; the T/C (dose: 50.0 mg/kg/injection, schedule: Q04DX003 (ip), vehicle: water) is 100 % of control and 109 % of control. Besides, the T/C under setting [4] is 89 % of control; the T/C (dose: 100.0 mg/kg/injection, schedule: Q04DX003 (ip), vehicle: water) is 88 % of control and 97 % of control.
With `O=C(CN1CCCCC1)c1ccc2c(c1)Cc1cc(C(=O)CN3CCCCC3)ccc1O2`, the T/C runs as follows: (dose: 50.0 mg/kg/injection, schedule: Q01DX009 (ip), vehicle: saline with Tween-80) 98 % of control; (dose: 100.0 mg/kg/injection, schedule: Q01DX009 (ip), vehicle: saline with Tween-80) 90 % of control.
`CC[N-]c1nnnn1CC.[Au+].c1ccc([PH+](c2ccccc2)c2ccccc2)cc1`: the T/C by setting is: (dose: 12.5 mg/kg/injection, schedule: Q01DX001 (ip), vehicle: saline with Tween-80) 100 % of control; (dose: 25.0 mg/kg/injection, schedule: Q01DX001 (ip), vehicle: saline with Tween-80) 111 % of control.
On to `S=C(S)NCCNC(=S)S`, for which the T/C is 120 % of control (dose: 40.0 mg/kg/injection, schedule: Q01DX009 (ip), vehicle: saline); 108 % of control (dose: 60.0 mg/kg/injection, schedule: Q01DX009 (ip), vehicle: saline); 109 % of control (dose: 85.0 mg/kg/injection, schedule: Q04DX003 (ip), vehicle: saline); 100 % of control (dose: 88.0 mg/kg/injection, schedule: Q01DX009 (ip), vehicle: saline); 109 % of control (dose: 88.0 mg/kg/injection, schedule: Q04DX003 (ip), vehicle: saline); 115 % of control (dose: 100.0 mg/kg/injection, schedule: Q01DX009 (ip), vehicle: saline). Besides, the T/C was 109 % of control and 118 % of control (dose: 100.0 mg/kg/injection, schedule: Q04DX003 (ip), vehicle: saline); 104 % of control (dose: 132.0 mg/kg/injection, schedule: Q04DX003 (ip), vehicle: saline); 115 % of control (dose: 150.0 mg/kg/injection, schedule: Q01DX009 (ip), vehicle: saline); 109 % of control (dose: 300.0 mg/kg/injection, schedule: Q04DX003 (ip), vehicle: saline); 120 % of control (dose: 350.0 mg/kg/injection, schedule: Q01DX009 (ip), vehicle: saline); 100 % of control and 118 % of control (dose: 400.0 mg/kg/injection, schedule: Q04DX003 (ip), vehicle: saline).
With `Cc1ccc2c(c1)Sc1ccc3ccccc3c1N2`, the T/C was 113 % of control (dose: 100.0 mg/kg/injection, schedule: Q04DX003 (ip), vehicle: saline sonified); 90 % of control (dose: 200.0 mg/kg/injection, schedule: Q04DX003 (ip), vehicle: saline sonified); 100 % of control (dose: 400.0 mg/kg/injection, schedule: Q04DX003 (ip), vehicle: saline sonified).
On to `OC1CCCC2CCC[N-]C12.OC1CCCC2CCC[N-]C12.[O]=[V][OH]` (centres undefined), for which the T/C (dose: 3.12 mg/kg/injection, schedule: Q01DX009 (ip), vehicle: Klucel (hydroxypropylcellulose) (HPC)) is 100 % of control; the T/C (dose: 6.25 mg/kg/injection, schedule: Q01DX009 (ip), vehicle: Klucel (hydroxypropylcellulose) (HPC)) is 95 % of control; the T/C (dose: 6.25 mg/kg/injection, schedule: Q01DX009 (ip), vehicle: saline) is 110 % of control; the T/C (dose: 12.5 mg/kg/injection, schedule: Q01DX009 (ip), vehicle: Klucel (hydroxypropylcellulose) (HPC)) is 100 % of control; the T/C (dose: 12.5 mg/kg/injection, schedule: Q01DX009 (ip), vehicle: saline) was 150 % of control; the T/C (dose: 25.0 mg/kg/injection, schedule: Q01DX009 (ip), vehicle: Klucel (hydroxypropylcellulose) (HPC)) was 100 % of control.
In the case of `CCOC(=O)/C=C(\C)SC1=CC(=O)c2ccccc2C1=O`, the T/C was 102 % of control (dose: 3.13 mg/kg/injection, schedule: Q01DX009 (ip), vehicle: saline with Tween-80); 104 % of control (dose: 6.25 mg/kg/injection, schedule: Q01DX009 (ip), vehicle: saline with Tween-80); 112 % of control (dose: 12.5 mg/kg/injection, schedule: Q01DX009 (ip), vehicle: saline with Tween-80); 104 % of control (dose: 25.0 mg/kg/injection, schedule: Q01DX009 (ip), vehicle: saline with Tween-80).
Turning to `COC(=O)[C@@H]1c2cc3c(c(O)c2[C@@H](OC2OC(C)C(OC)C(C)(OC)C2OC)C[C@]1(C)O)C(=O)c1c(O)cc2c(c1C3=O)O[C@H]1O[C@]2(C)[C@H](O)[C@@H](N(C)C)[C@@H]1O` (some centres undefined), the T/C by setting is: (dose: 0.13 mg/kg/injection, schedule: Q01DX010 (ip), vehicle: saline) 113 % of control; (dose: 0.19 mg/kg/injection, schedule: Q01DX010 (ip), vehicle: saline) 154 % of control; (dose: 0.25 mg/kg/injection, schedule: Q01DX009 (sc), vehicle: saline) 100 % of control; (dose: 0.25 mg/kg/injection, schedule: Q01DX010 (ip), vehicle: saline) 109 % of control; (dose: 0.38 mg/kg/injection, schedule: Q01DX010 (ip), vehicle: saline) 150 % of control; (dose: 0.5 mg/kg/injection, schedule: Q01DX009 (sc), vehicle: saline) 100 % of control. Also, the T/C was 100 % of control (dose: 0.75 mg/kg/injection, schedule: Q01DX001 (sc), vehicle: saline); 109 % of control (dose: 1.0 mg/kg/injection, schedule: Q01DX009 (ip), vehicle: saline); 100 % of control (dose: 1.0 mg/kg/injection, schedule: Q01DX009 (sc), vehicle: saline); 155 % of control (dose: 1.0 mg/kg/injection, schedule: Q01DX010 (ip), vehicle: saline); 100 % of control (dose: 1.5 mg/kg/injection, schedule: Q01DX001 (sc), vehicle: saline); 100 % of control (dose: 2.0 mg/kg/injection, schedule: Q01DX009 (ip), vehicle: saline). The T/C is 100 % of control (dose: 2.0 mg/kg/injection, schedule: Q01DX009 (oral), vehicle: saline); 100 % of control (dose: 2.0 mg/kg/injection, schedule: Q01DX009 (sc), vehicle: saline); 95 % of control (dose: 2.16 mg/kg/injection, schedule: Q04DX003 (ip), vehicle: water); 100 % of control (dose: 3.0 mg/kg/injection, schedule: Q01DX001 (sc), vehicle: saline); 107 % of control (dose: 3.0 mg/kg/injection, schedule: Q04DX003 (ip), vehicle: water); 100 % of control (dose: 4.0 mg/kg/injection, schedule: Q01DX009 (ip), vehicle: saline). Further, the T/C is, setting by setting: (dose: 4.0 mg/kg/injection, schedule: Q01DX009 (oral), vehicle: saline) 100 % of control; (dose: 4.0 mg/kg/injection, schedule: Q01DX009 (sc), vehicle: saline) 104 % of control; (dose: 5.0 mg/kg/injection, schedule: Q01DX001 (oral), vehicle: saline) 100 % of control; (dose: 6.0 mg/kg/injection, schedule: Q01DX001 (sc), vehicle: saline) 100 % of control; (dose: 8.0 mg/kg/injection, schedule: Q01DX009 (oral), vehicle: saline) 100 % of control; (dose: 10.0 mg/kg/injection, schedule: Q01DX001 (oral), vehicle: saline) 100 % of control. Also, the T/C runs as follows: (dose: 12.0 mg/kg/injection, schedule: Q01DX001 (sc), vehicle: saline) 100 % of control; (dose: 16.0 mg/kg/injection, schedule: Q01DX009 (oral), vehicle: saline) 100 % of control; (dose: 20.0 mg/kg/injection, schedule: Q01DX001 (oral), vehicle: saline) 100 % of control; (dose: 40.0 mg/kg/injection, schedule: Q01DX001 (oral), vehicle: saline) 100 % of control; (dose: 7.0 micrograms/kg/injection, schedule: Q01DX010 (ip), vehicle: saline) 110 % of control; (dose: 15.0 micrograms/kg/injection, schedule: Q01DX010 (ip), vehicle: saline) 90 % of control. Further, where the note is “dose: 30.0 micrograms/kg/injection, schedule: Q01DX010 (ip), vehicle: saline”, the T/C was 110 % of control.
As for `c1ccc(Cn2ccnc2)cc1`, the T/C was 87 % of control (dose: 3.12 mg/kg/injection, schedule: Q01DX009 (ip), vehicle: water); 92 % of control under setting [1]; 87 % of control under setting [2]; 99 % of control (dose: 25.0 mg/kg/injection, schedule: Q01DX009 (ip), vehicle: water); 100 % of control under setting [3]; 86 % of control under setting [4].
